“Also recorded” adds a separate entry of the source.

The test system of one assay is hyp-mice. Put plainly: In vivo daily ip injection of D6R in hyp mice (murine model of XLH). More on the design: species or system mouse. As to the method:
In vivo injection of D6R in normal and hyp mice: 3-week old normal and hyp mice were randomly separated into two groups for each strain. One group of mice received daily ip injection of saline. […] Blood samples were obtained every 3 days via retro-orbital bleedings. At the end of the in vivo injection period, the animals were euthanized with an overdose of sodium pentobarbital (65 mg/kg). The final blood sample was collected by cardiac puncture for large volume of serum preparation. Kidney and femoral bone samples were collected for total RNA and protein extractions.
(§1) Biochemistry measurements: Serum Pi levels were measured using Phosphorus Liqui-UV kit from Stanbio Laboratory (Boerne, Tex.). Serum Ca levels were measured using calcium Liquicolor kit from Stanbio following the manufacturer's protocols. Serum intact FGF-23 was measured employing a FGF-23 ELISA kit obtained from Kainos Laboratories, Japan. Serum C-terminal FGF-23 was measured using ELISA kit from Immunotopics, CA.
Real-time RT-PCR for mRNA expression: Total RNA was isolated from kidney samples and femurs. The femurs were trimmed of all fat, homogenized into fine powder in liquid nitrogen using porcelain motor and pestle. Total RNA was then extracted using TRIzol Reagent (Invitrogen, CA) following the manufacturer's protocol. Kidney samples were rinsed free of blood using ice-cold PBS buffer. Then the kidney was homogenized in TRIzol Reagent using mortor and pestle. Then, the renal total RNA was isolated following the manufacturer's protocol. RT reactions were performed using Bio-Rad iScript cDNA synthesis kit (Bio-Rad, CA) with poly-A primers. FGF-23 mRNA, as well as Npt2 mRNA and 25(OH)D3-1α-hydroxylase mRNA were quantitated by real-time PCR using gene specific primers.
Western blot for protein expression: Kidney proteins were isolated using sucrose buffer containing 20 mM HEPES, 1 mM EDTA, 255 mM sucrose, 0.4 mM phenylmethylsulfonyl fluoride, and 2 μg/ml leupeptin. The homogenate was centrifuged at 1,500 g for 15 min, and the pellet containing mitochondrial protein, including 25(OH)D-1α-hydroxylase, was re-suspended in the same buffer, aliquoted, and stored at −80° C. until use. The supernatant that contained the plasma membrane protein obtained after centrifugation was also collected for the measurement of Npt2 protein. Bone samples were homogenized into fine powder in liquid nitrogen. Protein contents were isolated using T-PER tissue protein extraction reagent with Halt protease inhibitor cocktail (Thermo Scientific, Rockford, Ill.).
A 20 μg aliquot of the respective protein extracts was electrophoresed in 10% SDS-PAGE gel and transferred onto a nitrocellulose membrane. The membrane was then washed and probed with specific antibodies and subsequently with specific secondary antibodies conjugated with HRP. To quantitate the immunoblotting signal, 6 ml of chemiluminescence detection solution (ECL plus, Amersham, UK) was added, and the signal was detected directly by the fluorescent scanner (Storm 860, Amersham, UK). Band density was analyzed using ImageQuant 5.2 software (Molecular Dynamics, Sunnyvale, Calif.). The antibody was then removed by incubating the membrane in reprobing solution (62.5 mM Tris-HCl, 2% SDS, and 100 mM 2-mercaptoethanol, pH 6.7) for 30 min, 50° C. The membrane was then blocked and probed with specific anti-β-actin antibody to verify the loading equivalence among samples.
High-resolution radiography (x-ray) for the femus: mouse femurs were extracted and incubated in lysis buffer (2×SSC, 0.2% SDS, 10 mM EDTA, 10 mg/ml proteinase K) for 2 days. After the surrounding muscles were digested, the femurs were washed in PBS buffer and X-rayed on a Faxitron model MX-20 Specimen Radiography System with a digital camera attached (Faxitron x-ray Corp., Buffalo Grove, Ill.). […]

The next assay relates to normal mice. Nature of the assay: In vivo daily ip injection of D6R in normal mice. More on the design: species or system mouse. Particulars: D6R treated, daily ip for 5 weeks, saline 200 ± 15.5, p<0.001. The method, then: In vivo injection of D6R in normal and hyp mice: 3-week old normal and hyp mice were randomly separated into two groups for each strain. One group of mice received daily ip injection of saline. The other group of mice received daily ip injection of D6R 1.5 μg/kg/day for 5 weeks. Blood samples were obtained every 3 days via retro-orbital bleedings. At the end of the in vivo injection period, the animals were euthanized with an overdose of sodium pentobarbital (65 mg/kg). The final blood sample was collected by cardiac puncture for large volume of serum preparation. Kidney and femoral bone samples were collected for total RNA and protein extractions.
as §1

In assay [1] the test system is SPC2. Put plainly: SPC2 activity in hTert osteoblasts (MOB) in culture. It is filed as cell-based. Particulars: D6R 50 μM, p<0.01. The method, then:
(§2) The dose-dependent effects of D6R (0-200 μM) on SPC2 activity in hTert osteoblasts (MOB) and MC3T3 osteoblasts in culture were also examined. […] Treatment of MC3T3 cells for a similar period likewise increased enzyme activity at 200 μM (124±14 vs 171±7 fluorescent units/min; p<0.05). Treatment of the MOB cell line with D6R, and the resulting increase in SPC2 enzyme activity decreased Fgf23 mRNA expression (1.0±0.7 vs 0.2±0.1 fold; p<0.001).

The subject of assay [2] is SPC2. Put plainly: SPC2 activity in MC3T3 osteoblasts in culture. The assay is classed as cell-based. The following applies: MC3T3 cells, D6R 200 μM, similar period (48 hours); control 124±14; p<0.05. The method, then:
as §2

The test system of assay [3] is MOB cells (hTert osteoblasts). Nature of the assay: mRNA expression in MOB cell line treated with D6R. It is filed as cell-based. As to the method:
as §2

As for hexa-D-arginine [D6R], in the assay on hyp-mice (D6R treated hyp-mice, FIGS. 12-13), the mineral apposition rate result was “normalization; also recorded: restoration of normal bone mineral apposition rate”. In addition, in the assay with hyp-mice (Hyp-mice, D6R treated, daily ip for 5 weeks, saline 2126 ± 281, p<0.001), the “serum FGF23 concentration” value was 1682 ± 191. In the assay with hyp-mice (hyp mouse), the “bone modeling (long bone circumference)” value was “decreased to normal”, the “length of the long bones in the extremities” value is “increased” and the “renal 25(OH)D3-1α-hydroxylase activity (translational abnormality)” value is listed as “normalized”. Besides, the “degradation of serum FGF23” value in the assay on hyp-mice (hyp mouse, D6R treatment, FIG. 3B) was “increased”. Further, in the assay with hyp-mice (hyp mouse, ip x 5 weeks), the “degradation of intact FGF23 in hyp-mouse bone” value is “enhanced”. Moreover, the “Fgf23 mRNA expression” value in the assay on hyp-mice (hyp mouse, ip x 5 weeks, FIG. 3A) is listed as “decreased”. In addition, the “Npt2a mRNA” value in the assay on hyp-mice (hyp mouse, kidney, FIGS. 2A-B) is on record as “normalization”. Moreover, the “renal phosphate wasting and serum phosphorus levels” value in the assay on hyp-mice (hyp mouse, FIG. 1) is “normalization”. Further, in the assay on hyp-mice (hyp mouse, FIG. 4), the “Sost mRNA and the coded protein Sclerostin” value is reported as “suppression”. Besides, in the assay with hyp-mice (hyp mouse, FIG. 5), the “bone 7B2 mRNA expression” value is given as “stimulation”. In the assay on hyp-mice (hyp mouse, FIG. 9), the bone density normalization entry is “increasing”. The “Osteoid surface/Bone surface (OS/BS)” value in the assay on hyp-mice (hyp mouse, FIG. 11A) was “decreasing”. Moreover, the “Mineralized area/Total Area (MA/TA ratios)” value in the assay with hyp-mice (hyp mouse, FIG. 11B) is on record as “enhancing”. The rickets and osteomalacia entry in the assay with hyp-mice (hyp mouse, FIGS. 6-13) is recorded as “cured”. Further, in the assay on normal mice, the “serum FGF23 concentration” value is 120 ± 12.5. Moreover, the “SPC2 activity, h-Tert osteoblasts” value in the assay with SPC2 [1] (control 121 ± 18) is 329 ± 17 fluorescent units. Besides, the SPC2 activity in the assay on SPC2 [1] (hTert osteoblasts, 48 hours, control 121±18) was 329±17 fluorescent units/min. Also, the SPC2 enzyme activity with SPC2 [2] was 171±7 fluorescent units/min. Besides, in assay [3] (MOB cell line treated with D6R, control 1.0±0.7, p<0.001), the “Fgf23 mRNA expression” value turned out to be 0.2±0.1 fold. For the same substance, the “SPC2 mRNA expression” value in assay [3] (MOB cells treated with D6R) was “without alteration”. For the same substance, the “7B2 mRNA expression” value in assay [3] (MOB cells treated with D6R, control 1.0±0.2, p<0.001) is given as 3.6±0.4 fold.

For the origin of these results see patent US9511111B2, “Methods for the treatment of X-linked hypophosphatemia and related disorders” (WISCONSIN ALUMNI RESEARCH FOUNDATION, priority 2010, dated 2016).
